± gives the expanded uncertainty stated by the source.
Tests used:
[1] = Crystal; DTA
[2] = Molar enthalpy of transition or fusion; settings: Crystal; DSC

Compound: Cc1ccc(NC(=O)/C(=C/Cl)Sc2ccccc2)cc1 [(Z)-3-chloro-2-phenylthio-N-(p-tolyl)acrylamide]
- Normal melting temperature [1]: 108.00 ± 1.1 °C
- Molar enthalpy of transition or fusion [2]: 6.16 ± 0.232 kcal/mol
